Laboratory results taken from the supplement of paper PMC6045584.
± gives the standard deviation of the averaged measurements.

Key:
2-METHOXYESTRADIOL = compound: COc1cc2c(cc1O)CC[C@@H]1[C@@H]2CC[C@]2(C)[C@@H](O)CC[C@@H]12 [2-METHOXYESTRADIOL]; test: surviving fraction relative to DMSO-only wells; higher = less growth inhibition; settings: exposure time: 5 days
In short: (§1)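 Lines were retained only if, across three screens, replicate Pearson r was >0.7 and median Z' was >0.3. Viability was measured as CellTiter-Glo luminescence and reported as surviving fraction relative to the median of DMSO-only wells. Readings followed 10 minutes at room temperature, after log-phase tumour cells seeded at 250–500 per well in 384-well plates had been exposed, from 24 hours after seeding, continuously for five days to inhibitors at 0.5, 1, 5, 10, 50, 100, 500 and 1000 nM.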

LAPATINIB = compound: CS(=O)(=O)CCNCc1ccc(-c2ccc3ncnc(Nc4ccc(OCc5cccc(F)c5)c(Cl)c4)c3c2)o1 [LAPATINIB]; test: as above; settings: exposure time: 5 days
In short: as §1

Test System | surviving fraction (2-METHOXYESTRADIOL; 0.5 nM) | surviving fraction (2-METHOXYESTRADIOL; 1 nM) | surviving fraction (2-METHOXYESTRADIOL; 5 nM) | surviving fraction (2-METHOXYESTRADIOL; 10 nM) | surviving fraction (2-METHOXYESTRADIOL; 50 nM) | surviving fraction (2-METHOXYESTRADIOL; 100 nM) | surviving fraction (2-METHOXYESTRADIOL; 500 nM) | surviving fraction (2-METHOXYESTRADIOL; 1000 nM) | surviving fraction (LAPATINIB; 0.5 nM) | surviving fraction (LAPATINIB; 1 nM) | surviving fraction (LAPATINIB; 5 nM) | surviving fraction (LAPATINIB; 10 nM) | surviving fraction (LAPATINIB; 50 nM) | surviving fraction (LAPATINIB; 100 nM) | surviving fraction (LAPATINIB; 500 nM) | surviving fraction (LAPATINIB; 1000 nM)
CCK81 LARGE INTESTINE | 0.764 ± 0.17 | 0.801 ± 0.13 | 0.773 ± 0.027 | 0.752 ± 0.059 | 0.776 ± 0.076 | 0.779 ± 0.03 | 0.574 ± 0.076 | 0.249 ± 0.02 | 0.728 ± 0.083 | 0.751 ± 0.054 | 0.826 ± 0.17 | 0.751 ± 0.074 | 0.65 ± 0.16 | 0.536 ± 0.024 | 0.082 ± 0.017 | 0.0653 ± 0.0081
G292 BONE | 0.988 ± 0.035 | 0.956 ± 0.026 | 1.04 ± 0.035 | 0.994 ± 0.049 | 0.982 ± 0.061 | 0.919 ± 0.029 | 0.39 ± 0.013 | 0.234 ± 0.017 | 0.973 ± 0.011 | 1.02 ± 0.052 | 1.03 ± 0.022 | 1.03 ± 0.026 | 1.02 ± 0.029 | 0.999 ± 0.02 | 0.967 ± 0.077 | 0.964 ± 0.015
HCC38 BREAST | 1.28 ± 0.069 | 1.28 ± 0.15 | 1.12 ± 0.26 | 1.21 ± 0.18 | 1.35 ± 0.15 | 1.02 ± 0.36 | 0.76 ± 0.074 | 0.349 ± 0.028 | 1.03 ± 0.17 | 0.933 ± 0.042 | 1 ± 0.35 | 1.09 ± 0.14 | 0.873 ± 0.13 | 0.776 ± 0.097 | 0.757 ± 0.13 | 0.794 ± 0.19
HCC70 BREAST | 0.978 ± 0.05 | 1.06 ± 0.064 | 1.03 ± 0.062 | 1.07 ± 0.016 | 1.03 ± 0.14 | 1.01 ± 0.1 | 0.629 ± 0.044 | 0.212 ± 0.043 | 1.05 ± 0.075 | 1.1 ± 0.076 | 1.16 ± 0.069 | 1.15 ± 0.036 | 1.05 ± 0.07 | 1.13 ± 0.044 | 0.99 ± 0.047 | 0.941 ± 0.058
HMLE3 BREAST | 0.913 ± 0.033 | 0.964 ± 0.037 | 0.991 ± 0.059 | 1.05 ± 0.031 | 0.987 ± 0.068 | 0.887 ± 0.059 | 0.937 ± 0.064 | 0.602 ± 0.035 | 1.04 ± 0.1 | 1.09 ± 0.074 | 1.05 ± 0.065 | 1.07 ± 0.098 | 1.04 ± 0.041 | 1.14 ± 0.13 | 0.992 ± 0.084 | 0.966 ± 0.046
HMT3552 BREAST | 1.06 ± 0.034 | 1.04 ± 0.09 | 1.08 ± 0.013 | 0.993 ± 0.015 | 1.11 ± 0.029 | 1.17 ± 0.066 | 0.343 ± 0.025 | 0.126 ± 0.008 | 1.03 ± 0.033 | 1.02 ± 0.073 | 1.06 ± 0.026 | 1.04 ± 0.075 | 1.02 ± 0.014 | 1.05 ± 0.083 | 0.861 ± 0.12 | 0.944 ± 0.074
HS57T BREAST | 0.919 ± 0.034 | 0.879 ± 0.078 | 0.95 ± 0.074 | 0.965 ± 0.041 | 0.936 ± 0.044 | 0.901 ± 0.054 | 0.326 ± 0.017 | 0.0817 ± 0.0051 | 0.975 ± 0.054 | 1 ± 0.022 | 1.07 ± 0.074 | – | 1.03 ± 0.044 | 1.09 ± 0.044 | 0.97 ± 0.04 | 0.933 ± 0.037
HS578T BREAST | 0.859 ± 0.075 | 0.947 ± 0.024 | 0.946 ± 0.13 | 0.917 ± 0.046 | 1.05 ± 0.23 | 1.16 ± 0.096 | 0.499 ± 0.08 | 0.188 ± 0.0064 | 1.19 ± 0.11 | 1.03 ± 0.045 | 1.11 ± 0.15 | 0.871 ± 0.14 | 1.04 ± 0.048 | 1.08 ± 0.013 | 0.941 ± 0.052 | 1.05 ± 0.15
